Results reported in patent publication US4101676A, “Diphenylpropylamines to treat depression” (Beecham Group Limited, priority 1973, dated 1978).
Where a name gives a salt, the structure may show the parent alone.

How the values were obtained:
[1] = test system: Noradrenaline uptake; assay: Inhibition of Noradrenaline Uptake in vitro (brain synaptosomes); format: biochemical, male Wistar rats
Method: (§1) Synaptosomes are isolated from the brains of male Wistar rats (150-170g.) and monamine uptake determined by the method of Snyder and Coyle (1968) [Synder S. H. and Coyle J. T. J. Pharmac. exp. Ther. 165 (1968) 78-86]. Uptake was determined over a ten minute period instead of the normal five minutes.
(§2) The Reserpine Prevention, Reserpine Reversal and Noradrenaline Uptake Inhibition tests were carried out as described in the previous Example. The Mydriasis tests was also as described in the previous Example but using 20 mg/kg doses of each compound after which a curve was plotted of percentage increase in pupil diameter vertus time and the percentage increase was integrated with respect to time for 0-120 minutes after dosing and the result expressed as a percentage.

[2] = test system: reserpine hypothermia; assay: Prevention of Reserpine Hypothermia; format: in vivo, mice (Carworth Europe male); conditions: for Reserpine Prevention Δ^6: 6 hours; for Reserpine Prevention Δ^24: 24 hours; for Δ^6 / Δ^24: mice, oral; for Δ^6: cumulative temperature difference from controls at 6 hours; for Δ^24: cumulative temperature difference from controls at 24 hours
Method: The method of Spencer [Antidepressant Drugs, 194 (1967) ] was used. Groups of ten mice are given oral doses of test compound 24 18 and 2 hours before an intravenous injection of reserpine base (Serpasil). Oral temperatures of the mice are taken immediately before administration of reserpine and then 2 4 6 and 24 hours afterwards.
Mean temperatures of groups given test compounds are compared with reserpinised controls using a Students t test. Compounds causing a significant difference at the level P < 0.001 are considered active. In order to quantify anti-reserpine activity cumulative temperature differences from controls at 6 hours and 24 hours (Δ^6 and Δ^24 ) are calculated.
(§3) Carworth Europe male mice are used for all experiments apart from that using the cat nictitating membrane and test compounds are administered orally as solutions in distilled water. Compounds for intravenous administration are dissolved in 0.9% saline apart from Reserpine which is dissolved in dilute acetic acid buffered to pH5. Unless otherwise stated, the dosing interval is one hour.
as §2

[3] = test system: pupil diameter (mydriasis); assay: Mydriasis integral 0-120 minutes; format: in vivo, mice; conditions: mice, 20 mg/kg, 0-120 minutes
Method: Groups of five mice are pre-selected for uniformity of pupil diameter using a binocular microscope with a calibrated eye-piece. Pupil sizes are measured at various intervals after an intraperitoneal injection of test compound and at the peak time a curve plotted of percentage increase in pupil diameter versus log dose. From this the dose causing a 200% increase in pupil size (this lies on the linear part of the curve) is found
as §3, §2

[4] = test system: reserpine hypothermia; assay: Reversal of Reserpine Hypothermia; format: in vivo, mice (Carworth Europe male); conditions: for Reserpine Reversal Δ^6 / Δ^6: 6 hours; for Reserpine Reversal Δ^24 / Δ^24: 24 hours; for Δ^6 / Δ^24: mice, subcutaneous
Method: Seventeen hours later the oral temperatures of the mice are taken and various doses of test compound or vehicle given subcutaneously. Temperatures are taken 1, 2, 4 6 and 24 hours later and the results are analysed as in Test 1 (The subcutaneous route is used for convenience as the very depressed reserpinised mice cannot be reliably dosed orally).
as §3, §2

[5] = test system: pupil diameter (mydriasis, anticholinergic side effect); assay: Mydriatic Response in Mice (dose causing 200% increase in pupil size); format: in vivo
Method: Groups of five mice are pre-selected for uniformity of pupil diameter using a binocular microscope with a calibrated eye-piece. Pupil sizes are measured at various intervals after an intraperitoneal injection of test compound and at the peak time a curve plotted of percentage increase in pupil diameter versus log dose. […] Carworth Europe male mice are used for all experiments apart from that using the cat nictitating membrane and test compounds are administered orally as solutions in distilled water. […] Unless otherwise stated, the dosing interval is one hour.

[6] = biological target: T1, Guinea Pig Ileum (Cavia porcellus); assay: pA2 Determination on Guinea Pig Ileum (antagonism to Acetylcholine); conditions: in vitro, read-out: pA2 on Iillium (converted)
T1 construct: from tissue; host or cells: guinea pig ileum
Text: It is thus a means of expressing anticholinergic activity which is independent of the dose of Acetylcholine and the piece of tissue used. The method used is similar to that of Schild, [Brit. J. Pharmacol. 14 (1959) 48] the tissue being bathed in Tyrode solution and a dose response curved for Acetylcholine being obtained.

[7] = test system: 5-Hydroxytryptamine uptake; assay: Inhibition of 5-Hydroxytryptamine Uptake in vitro (brain synaptosomes); format: biochemical, male Wistar rats
Method: as §1

[8] = Pharmacology 2, dose 10 (unit not given)
[9] = Pharmacology 2, dose 20 (unit not given)
[10] = Pharmacology 2, dose 40 (unit not given)
[11] = mice, intraperitoneal, at peak time

T1 sequence (H0W1Z3 1-590): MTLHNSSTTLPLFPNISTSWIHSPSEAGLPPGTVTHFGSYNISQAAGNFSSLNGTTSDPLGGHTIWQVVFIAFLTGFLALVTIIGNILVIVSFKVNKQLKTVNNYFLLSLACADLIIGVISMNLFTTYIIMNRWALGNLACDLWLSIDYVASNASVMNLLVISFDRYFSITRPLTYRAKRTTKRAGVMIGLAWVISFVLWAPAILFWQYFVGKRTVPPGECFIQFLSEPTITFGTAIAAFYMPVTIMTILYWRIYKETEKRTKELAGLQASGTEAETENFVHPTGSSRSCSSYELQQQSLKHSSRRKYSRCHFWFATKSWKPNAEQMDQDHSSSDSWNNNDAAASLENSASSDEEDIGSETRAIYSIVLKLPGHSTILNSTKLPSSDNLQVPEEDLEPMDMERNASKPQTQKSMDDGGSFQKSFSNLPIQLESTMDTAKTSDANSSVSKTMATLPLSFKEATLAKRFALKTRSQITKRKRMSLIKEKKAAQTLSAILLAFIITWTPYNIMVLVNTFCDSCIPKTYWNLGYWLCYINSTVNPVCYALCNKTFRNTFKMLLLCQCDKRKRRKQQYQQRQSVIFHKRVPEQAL

## CN(C)CC(O)C(c1ccccc1)c1ccccc1 (racemic) [Compound A, (±) -3-Dimethylamino-1,1-diphenylpropan-2-ol]
[1]; 10^-6 molar (Pharmacology 2)
  Inhibition of Noradrenaline Uptake In Vitro %: 63%
[2]; [8]
  Reserpine Prevention Δ^6: 12 °C
  Reserpine Prevention Δ^24: 16 °C
[2]; [9]
  Reserpine Prevention Δ^6: 15 °C
  Reserpine Prevention Δ^24: 19 °C
[2]; [10]
  Reserpine Prevention Δ^6: 15 °C
  Reserpine Prevention Δ^24: 22 °C
[3]
  Mydriasis Integral Percent 120 Mins.: 7400%
[4]; [8]
  Reserpine Reversal Δ^6: 16 °C
  Reserpine Reversal Δ^24: 20 °C
[4]; [9]
  Reserpine Reversal Δ^6: 14 °C
  Reserpine Reversal Δ^24: 17 °C
[4]; [10]
  Reserpine Reversal Δ^6: 15 °C
  Reserpine Reversal Δ^24: 20 °C

## CN(C)CCC=C1c2ccccc2CCc2ccccc21 [Amitriptyline hydrochloride, reference compound]
[2]; 30 mg/kg
  Δ^6: 12 °C
  Δ^24: 22 °C
[5]; mouse, in vivo, ip
  Mydriasis-Dose to cause 200% effect: 6 mg/kg

## CCN(CC)CC(O)C(c1ccccc1)c1ccccc1 (stereo not shown) [C2H5 C2H5 H H H HCl]
[2]; 30 mg/kg
  Δ^6: 11 °C
  Δ^24: 11 °C

## CN(Cc1ccccc1)CC(O)C(c1ccccc1)c1ccc(F)cc1 (stereo not shown) [CH2C6H5 CH3 H H F, 3-(N-Benzyl,N-methylamino)-1-p-fluorophenyl-1-phenylpropan-2-ol]
[2]; 30 mg/kg
  Δ^6: 9 °C
  Δ^24: 11 °C

## CN(Cc1ccccc1)CC(O)C(c1ccccc1)c1ccccc1 (stereo not shown) [CH2C6H5 CH3 H H H HCl, 3-(N-Benzyl-N-methylamino)-1,1-diphenyl-propan-2-ol]
[2]; 30 mg/kg
  Δ^6: 10 °C
  Δ^24: 11 °C

## Cc1ccccc1C(c1ccccc1)C(O)CN(C)C (stereo not shown) [CH3 CH3 CH3 H H HCl, 3-Dimethylamino-1-phenyl-1-o-tolyl-propan-2-ol]
[2]; 30 mg/kg
  Δ^6: 11 °C
  Δ^24: 14 °C

## CN(C)CC(O)C(c1ccccc1)c1cccc(Cl)c1 (stereo not shown) [CH3 CH3 H Cl H HCl, 3-Dimethylamino-1-m-chlorophenyl-1-phenyl-propan-2-ol]
[2]; 20 mg/kg
  Δ^6: 10 °C
  Δ^24: 17 °C

## CN(C)CC(O)C(c1ccccc1)c1ccc(Cl)cc1 (stereo not shown) [CH3 CH3 H H Cl, 3-Dimethylamino-1-p-chlorophenyl-1-phenyl-propan-2-ol]
[2]; 30 mg/kg
  Δ^6: 13 °C
  Δ^24: 22 °C
[4]; 30 mg/kg
  Δ^6: 9 °C
  Δ^24: 11 °C
[5]; [11]
  Mydriasis-Dose to cause 200% effect: 40 mg/kg
[6]
  Kb: 10 µM

## CN(C)CC(O)C(c1ccccc1)c1ccc(F)cc1 (stereo not shown) [CH3 CH3 H H F, 3-Dimethylamino-1-p-fluorophenyl-1-phenyl-propan-2-ol]
[1]; 10^-5 molar
  Inhibition of Monoamine Uptake NA (%): 80%
[1]; 10^-6 molar (Table 4)
  Inhibition of Monoamine Uptake NA (%): 59%
[7]; 10^-5 molar
  Inhibition of Monoamine Uptake 5HT (%): 85%
[7]; 10^-6 molar
  Inhibition of Monoamine Uptake 5HT (%): 60%
[2]; 20 mg/kg
  Δ^6: 11 °C
  Δ^24: 15 °C
[4]; 25 mg/kg
  Δ^6: 17 °C
  Δ^24: 23 °C

## CN(C)CC(O)C(c1ccccc1)c1ccccc1 (stereo not shown) [CH3 CH3 H H H HBr, 3-Dimethylamino-1,1-diphenyl-propan-2-ol]
[2]; 20 mg/kg
  Δ^6: 13 °C
  Δ^24: 19 °C
[4]; 20 mg/kg
  Δ^6: 14 °C
  Δ^24: 22 °C
[5]; [11]
  Mydriasis-Dose to cause 200% effect: 41 mg/kg
[6]
  Kb: 10 µM

## CNCC(O)C(c1ccccc1)c1ccc(C)cc1 (stereo not shown) [CH3 H H H CH3 HCl, 3-N-methylamino-1-phenyl-1-p-tolyl-propan-2-ol]
[2]; 100 mg/kg
  Δ^6: 6 °C
  Δ^24: 6 °C

## CNCC(O)C(c1ccccc1)c1ccccc1 (stereo not shown) [CH3 H H H H HCl, 3-Methylamino-1,1-diphenyl-propan-2-ol]
[1]; 10^-5 molar
  Inhibition of Monoamine Uptake NA (%): 85%
[1]; 10^-6 molar (Table 4)
  Inhibition of Monoamine Uptake NA (%): 65%
[2]; 20 mg/kg
  Δ^6: > 10 °C
  Δ^24: > 10 °C
[5]; [11]
  Mydriasis-Dose to cause 200% effect: 114 mg/kg
[6]
  Kb: 10 µM

## CN(Cc1ccccc1)CC(C)(O)C(c1ccccc1)c1ccccc1 (stereo not shown) [CH3 H N(CH3)CH2C6H5, 3-(N-Benzyl N-methylamino)-2-methyl-1,1-diphenyl-propan-2-ol]
[2]; 100 mg/kg
  Δ^6: 6 °C
  Δ^24: 8 °C

## CNCC(C)(O)C(c1ccccc1)c1ccccc1 (stereo not shown) [CH3 H NHCH3, 3-(N-methylamino)-2-methyl-1,1-diphenyl-propan-2-ol]
[2]; 30 mg/kg
  Δ^6: 7 °C
  Δ^24: 13 °C

## CNCC(O)C(c1ccccc1)c1ccc(F)cc1 (stereo not shown) [H CH3 H H F, 3-Methylamino-1-p-fluorophenyl-1-phenyl-propan-2-ol]
[2]; 30 mg/kg
  Δ^6: 12 °C
  Δ^24: 21 °C
[5]; [11]
  Mydriasis-Dose to cause 200% effect: 92 mg/kg
[6]
  Kb: 100 µM

## CC(=O)OC(CN(C)C)C(c1ccccc1)c1ccccc1 (stereo not shown) [H COCH3 N(CH3)2, 2-Acetoxy-3-dimethylamino-1,1-diphenyl-propane]
[2]; 20 mg/kg
  Δ^6: > 10 °C
  Δ^24: > 10 °C

## OC(CN1CCOCC1)C(c1ccccc1)c1ccccc1 (stereo not shown) [H H morpholino]
[2]; 100 mg/kg
  Δ^6: 10 °C
  Δ^24: 10 °C

## OC(CN1CCCCC1)C(c1ccccc1)c1ccccc1 (stereo not shown) [H H piperidine, 3-N-Piperidino-1 1-diphenyl-propan-2-ol]
[2]; 100 mg/kg
  Δ^6: 9 °C
  Δ^24: 10 °C

## CN(C)CCCN1c2ccccc2CCc2ccccc21 [Imipramine HCl, reference compound]
[1]; 10^-5 molar
  Inhibition of Monoamine Uptake NA (%): 85%
[1]; 10^-6 molar (Table 4)
  Inhibition of Monoamine Uptake NA (%): 56%
[7]; 10^-5 molar
  Inhibition of Monoamine Uptake 5HT (%): 90%
[7]; 10^-6 molar
  Inhibition of Monoamine Uptake 5HT (%): 55%
[2]; 30 mg/kg
  Δ^6: 10 °C
  Δ^24: 17 °C
[4]; 10 mg/kg
  Δ^6: 18 °C
  Δ^24: 18 °C
[5]; [11]
  Mydriasis-Dose to cause 200% effect: 18 mg/kg
[6]
  Kb: 0.001 µM
